pIC50: −log10 of the molar value.
Key:
[1] = molecular target: T1, mutEGFR (D770_N771insNPG, T790) (Homo sapiens, UniProt P00533, INS770NPG/T790M); assay: mutEGFR (D770_N771insNPG, T790) kinase assay; format: biochemical; settings: Table 2a, D770_N771insNPG
T1 construct: exact insNPG construct not described; in-house EGFR proteins were N-terminal GST fusions from baculovirus/insect cells (borders R669-A1210 given only for WT, insSVD, insASV)
From the text: The different EGFR proteins used in the biochemical kinase activity inhibition assays were generated inhouse by expression in insect cells using Baculo Virus system and subsequent purification as described in the following paragraphs.
The cDNAs encoding the various protein sequences from human EGFR human (P00533) were optimized for expression in eukaryotic cells and synthesized by the GeneArt Technology at Life Technologies.

[2] = molecular target: T2, mutEGFR (D770_N771insSVD) (Homo sapiens, UniProt P00533, DUP768-770); assay: Exon20-Mutant-EGFR (D770_N771insSVD) kinase assay (TR-FRET); format: biochemical; settings: mutEGFR (D770_N771insSVD) kinase assay IC50, Table 2a; D770_N771insSVD; 2 mM ATP
T2 construct: GST-EGFR #3 (SVD between D770 and N771); made in house; host or cells: Sf9 insect cells (baculovirus)

[3] = system: BA/F3 (insSVD) cells; assay: Ba/F3-EGFR-insSVD cell survival assay (Cell Titer-Glo); format: cell-based; settings: Mus musculus, BaF3, 48 h, Table 3a, cell survival, Cell Titer-Glo, with 10 ng/ml EGF, without IL-3
Method: Cellular Data Description (WT, insSVD, insSVD T790M) 293T cells from ATCC were transfected with pBABEpuro expression constructs for WT EGFR or EGFR-insSVD, or EGFR-insSVD T790M, and pCL-Eco packaging vector using Fugene-6 transfection reagent from Promega. Plates were incubated at 37° C. for 48 h. Retrovirus was harvested by filtering the media supernatant through a 0.45 μm filter.
Ba/F3 cells purchased from DSMZ were grown in RPMI+10% FBS+10 ng/ml IL-3 and infected with filtered retroviral supernatant at a 1:2 dilution. Polybrene was added to a concentration of 8 μg/mL, plates were spun for 90 min, and incubated for 16 h at 37° C. 2 μg/mL puromycin was added to the infected cells 24 h after infection and cells were continually grown in the presence of puromycin and 10 ng/ml IL-3. Following stably expressing Ba/F3 cell lines were generated: Ba/F3-EGFR-WT, Ba/F3-EGFR-insSVD, Ba/F3-EGFR-insSVD T790M, (Ba/F3-vector-control).
For cell survival assays, Ba/F3 cells were grown to a density of 1-2 million cells per mL, spun down and resuspended in media without IL-3, and replated at a concentration of 200,000-500,000 cells per mL. The cells ectopically expressing WT EGFR, EGFR-insSVD, or EGFR-insSVD T790M were plated with 10 ng/ml Millipore Culture grade EGF. The cells ectopically expressing pBABEpuro empty vector were plated with 10 ng/mL IL-3.
2 days later, cells were plated in 50 µL in a 384 well plate at a concentration of 4000 cells per well for cells assayed in the absence of IL-3 and 2000 cells per well for cells assayed in the presence of IL-3. 100 nL of compound was added to each well using a 100 nL pin head, and plates were incubated at 37° C. for 48 h.
Cell viability was measured by adding 20 μL of Cell Titer-Glo Luminescent Cell Viability Reagent diluted 1:3 in PBS. Plates were sealed with Perkin Elmer Top-Seal, inverted several times to mix, and immediately centrifuged at 1000 rpm for 2 min. Plates were incubated in low light conditions for 8-10 min and luminescence was measured.

T2 sequence (P00533 with tags, fused parts or gaps DUP768-770): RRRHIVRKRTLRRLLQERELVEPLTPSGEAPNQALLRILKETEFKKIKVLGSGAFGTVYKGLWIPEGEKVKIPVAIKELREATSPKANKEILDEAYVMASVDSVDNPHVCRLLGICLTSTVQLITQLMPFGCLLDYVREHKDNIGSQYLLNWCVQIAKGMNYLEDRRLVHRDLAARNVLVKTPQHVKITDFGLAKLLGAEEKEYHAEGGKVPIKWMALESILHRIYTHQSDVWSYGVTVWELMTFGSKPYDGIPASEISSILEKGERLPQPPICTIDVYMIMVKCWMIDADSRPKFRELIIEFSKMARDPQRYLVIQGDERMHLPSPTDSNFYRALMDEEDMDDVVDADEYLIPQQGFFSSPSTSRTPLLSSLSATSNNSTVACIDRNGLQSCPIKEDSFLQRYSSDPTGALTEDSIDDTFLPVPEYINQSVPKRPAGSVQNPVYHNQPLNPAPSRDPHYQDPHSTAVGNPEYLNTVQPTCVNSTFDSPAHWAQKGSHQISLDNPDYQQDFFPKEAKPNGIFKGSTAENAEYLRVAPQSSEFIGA
T1 sequence (P00533 with tags, fused parts or gaps INS770NPG/T790M limits assumed): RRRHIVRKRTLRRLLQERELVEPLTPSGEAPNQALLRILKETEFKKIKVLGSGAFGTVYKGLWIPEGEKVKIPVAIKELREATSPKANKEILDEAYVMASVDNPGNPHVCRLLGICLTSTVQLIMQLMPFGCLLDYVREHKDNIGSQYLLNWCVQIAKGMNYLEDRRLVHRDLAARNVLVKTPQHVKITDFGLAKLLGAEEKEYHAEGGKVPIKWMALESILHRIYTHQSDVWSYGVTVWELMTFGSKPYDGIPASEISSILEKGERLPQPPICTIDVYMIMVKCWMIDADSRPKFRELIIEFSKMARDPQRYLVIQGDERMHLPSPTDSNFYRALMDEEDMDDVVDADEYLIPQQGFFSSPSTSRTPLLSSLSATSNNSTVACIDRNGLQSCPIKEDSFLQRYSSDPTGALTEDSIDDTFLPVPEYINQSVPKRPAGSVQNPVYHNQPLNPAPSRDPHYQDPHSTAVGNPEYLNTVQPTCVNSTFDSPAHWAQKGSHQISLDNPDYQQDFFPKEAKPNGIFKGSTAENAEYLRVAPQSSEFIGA

| Structure (SMILES) | pIC50 [1] | pIC50 [2] | pIC50 [3] |
| --- | --- | --- | --- |
| CN(C)C/C=C/C(=O)N1Cc2c(-c3ccncc3)c(-c3ccc(F)cc3)nn2C(CC(=O)N(C)C)C1 (racemic) [Example 222, 2-[(7RS)-5-[(2E)-4-(dimethylamino)but-2-enoyl]-2-(4-fluorophenyl)-3-(pyridin-4-yl)-4,5,6,7-tetrahydropyrazolo[1,5-a]pyrazin-7-yl]-N,N-dimethylacetamide] | 7.89 | 8.42 | 6.18 |
| C=CC(=O)N1Cc2c(-c3ccncc3)c(-c3ccc(OC)cc3)nn2CC1C (racemic) [Example 228, 1-[(6RS)-2-(4-methoxyphenyl)-6-methyl-3-(pyridin-4-yl)-6,7-dihydropyrazolo[1,5-a]pyrazin-5(4H)-yl]prop-2-en-1-one] | 8.66 | 9.14 | 7.35 |
| C=CC(=O)N1Cc2c(-c3ccncc3)c(-c3ccc4cc(F)sc4c3)nn2CC1C (racemic) [Example 229, 1-[(RS)-2-(2-fluoro-1-benzothiophen-6-yl)-6-methyl-3-(pyridin-4-yl)-6,7-dihydropyrazolo[1,5-a]pyrazin-5(4H)-yl]prop-2-en-1-one] | 9.45 | 9.73 | 7.77 |
| C=CC(=O)N1Cc2c(-c3ccncc3)c(-c3ccc(C(F)(F)F)cc3F)nn2CC1C (racemic) [Example 230, 1-[(6RS)-2-[2-fluoro-4-(trifluoromethyl)phenyl]-6-methyl-3-(pyridin-4-yl)-6,7-dihydropyrazolo[1,5-a]pyrazin-5(4H)-yl]prop-2-en-1-one] | 8.98 | 9.38 | 7.81 |
| C=CC(=O)N1Cc2c(-c3ccncc3)c(-c3ccc(OC)cc3F)nn2CC1C (racemic) [Example 231, 1-[(RS)-2-(2-fluoro-4-methoxyphenyl)-6-methyl-3-(pyridin-4-yl)-6,7-dihydropyrazolo[1,5-a]pyrazin-5(4H)-yl]prop-2-en-1-one] | 8.96 | 9.30 | 7.18 |
| C=CC(=O)N1Cc2c(-c3ccncc3)c(-c3ccc4ccccc4c3)nn2CC1C (racemic) [Example 232, 1-[(RS)-6-methyl-2-(naphthalen-2-yl)-3-(pyridin-4-yl)-6,7-dihydropyrazolo[1,5-a]pyrazin-5(4H)-yl]prop-2-en-1-one] | 9.79 | 9.94 | 7.81 |
| C=CC(=O)N1Cc2c(-c3ccncc3)c(-c3ccc4cc(Cl)sc4c3)nn2CC1C (racemic) [Example 233, 1-[(RS)-2-(2-chloro-1-benzothiophen-6-yl)-6-methyl-3-(pyridin-4-yl)-6,7-dihydropyrazolo[1,5-a]pyrazin-5(4H)-yl]prop-2-en-1-one] | 9.33 | 9.59 | 7.31 |
| C=CC(=O)N1Cc2c(-c3ccncc3)c(-c3ccc4ccsc4c3)nn2CC1C (racemic) [Example 234, 1-[(6RS)-2-(1-benzothiophen-6-yl)-6-methyl-3-(pyridin-4-yl)-6,7-dihydropyrazolo[1,5-a]pyrazin-5(4H)-yl]prop-2-en-1-one] | 9.48 | 9.77 | 6.91 |
| CC1Cn2nc(-c3ccc(Cl)cc3F)c(-c3ccncc3)c2CN1C(=O)/C=C/CN(C)C (racemic) [Example 235, (2E)-1-[(RS)-2-(4-chloro-2-fluorophenyl)-6-methyl-3-(pyridin-4-yl)-6,7-dihydropyrazolo[1,5-a]pyrazin-5(4H)-yl]-4-(dimethylamino)but-2-en-1-one] | 9.23 | 9.74 | 7.62 |
| CC1Cn2nc(-c3ccc4ccsc4c3)c(-c3ccncc3)c2CN1C(=O)/C=C/CN(C)C (racemic) [Example 236, (2E)-1-[(RS)-2-(1-benzothiophen-6-yl)-6-methyl-3-(pyridin-4-yl)-6,7-dihydropyrazolo[1,5-a]pyrazin-5(4H)-yl]-4-(dimethylamino)but-2-en-1-one] | 9.54 | 9.74 | 6.59 |
| C=C(F)C(=O)N1Cc2c(-c3ccncc3)c(-c3ccc(Cl)cc3F)nn2CC1C (racemic) [Example 237, 1-[(RS)-2-(4-chloro-2-fluorophenyl)-6-methyl-3-(pyridin-4-yl)-6,7-dihydropyrazolo[1,5-a]pyrazin-5(4H)-yl]-2-fluoroprop-2-en-1-one] | 8.00 | 8.53 | 6.90 |
| C=C(F)C(=O)N1Cc2c(-c3ccncc3)c(-c3ccc4ccsc4c3)nn2CC1C (racemic) [Example 238, 1-[(RS)-2-(1-benzothiophen-6-yl)-6-methyl-3-(pyridin-4-yl)-6,7-dihydropyrazolo[1,5-a]pyrazin-5(4H)-yl]-2-fluoroprop-2-en-1-one] | 8.66 | 8.80 | 7.16 |
| C=CC(=O)N1CCn2nc(-c3ccc(F)cc3)c(-c3ccncc3)c2C1C (racemic) [Example 239, 1-[(RS)-2-(4-fluorophenyl)-4-methyl-3-(pyridin-4-yl)-6,7-dihydropyrazolo[1,5-a]pyrazin-5(4H)-yl]prop-2-en-1-one] | 8.32 | 8.86 | 7.41 |
| C=CC(=O)N1CCn2nc(-c3ccc(Cl)cc3F)c(-c3ccncc3)c2C1C (racemic) [Example 240, 1-[(RS)-2-(4-chloro-2-fluorophenyl)-4-methyl-3-(pyridin-4-yl)-6,7-dihydropyrazolo[1,5-a]pyrazin-5(4H)-yl]prop-2-en-1-one] | 8.82 | 9.36 | 7.27 |
| C=CC(=O)N1CCn2nc(-c3ccc(OC)cc3)c(-c3ccncc3)c2C1C (racemic) [Example 241, 1-[(RS)-2-(4-methoxyphenyl)-4-methyl-3-(pyridin-4-yl)-6,7-dihydropyrazolo[1,5-a]pyrazin-5(4H)-yl]prop-2-en-1-one] | 7.91 | 8.41 | 7.11 |
| C=CC(=O)N1CCn2nc(-c3ccc4sccc4c3)c(-c3ccncc3)c2C1C (racemic) [Example 242, 1-[(RS)-2-(1-benzothiophen-5-yl)-4-methyl-3-(pyridin-4-yl)-6,7-dihydropyrazolo[1,5-a]pyrazin-5(4H)-yl]prop-2-en-1-one] | 9.08 | 9.35 | 7.32 |
| C=CC(=O)N1CCn2nc(-c3ccc4cc[nH]c4c3)c(-c3ccncc3)c2C1C (racemic) [Example 243, 1-[(RS)-2-(1H-indol-6-yl)-4-methyl-3-(pyridin-4-yl)-6,7-dihydropyrazolo[1,5-a]pyrazin-5(4H)-yl]prop-2-en-1-one] | 9.18 | 9.40 | 7.01 |
| CC1c2c(-c3ccncc3)c(-c3ccc(Cl)cc3F)nn2CCN1C(=O)/C=C/CN(C)C (racemic) [Example 244, (2E)-1-[(RS)-2-(4-chloro-2-fluorophenyl)-4-methyl-3-(pyridin-4-yl)-6,7-dihydropyrazolo[1,5-a]pyrazin-5(4H)-yl]-4-(dimethylamino)but-2-en-1-one] | 8.70 | 9.13 | 6.77 |
| C=CC(=O)N1Cc2c(-c3ccncc3)c(-c3ccc4sccc4c3)nn2C(C)C1 (racemic) [Example 280, 1-[(7RS)-2-(1-benzothiophen-5-yl)-7-methyl-3-(pyridin-4-yl)-6,7-dihydropyrazolo[1,5-a]pyrazin-5(4H)-yl]prop-2-en-1-one] | 9.82 | 10.09 | 8.17 |
| C=CC(=O)N1Cc2c(-c3ccncc3)c(-c3ccc(Cl)cc3)nn2C(C)C1 (racemic) [Example 281, 1-[(7RS)-2-(4-chlorophenyl)-7-methyl-3-(pyridin-4-yl)-6,7-dihydropyrazolo[1,5-a]pyrazin-5(4H)-yl]prop-2-en-1-one] | 9.44 | 9.77 | 8.01 |

— patent US20260365653A1, “IRREVERSIBLE MUTEGFR INHIBITORS” (Bayer Aktiengesellschaft, priority 2022, published 2026)
